This note sets out measurements from patent publication US20210379046A1, “Methods of Treating Diseases Using Kinase Modulators” (Memorial Sloan Kettering Cancer Center, priority 2018, published 2021).

“Also recorded” adds a separate entry of the source.

Assay type in all cases: cell-based, human
Assay [1] concerns TPC1 cells. Description: Mass spectrometry of eluted HLA class I presented peptides, TPC1 cells. The method, then:
After 72 hrs, cells were harvested, washed, lysed. The lysate was run through an activated Sepharose-CNBr column coupled to the W6/32 antibody to bind HLA-A,B,C from the cell. The peptides bound by those HLAs and captured on the column were then eluted and mass spectrometry was run on those peptides.
Immunopurification affinity columns were prepared as described previously (Bassani-Sternberg et al., 2015, Mol Cell Proteomics 14(3):658-673). In brief, 40 mg of Cyanogen bromide-activated-Sepharose® 4B (Sigma-Aldrich, Cat #C9142) was activated with 1 mM hydrochloric acid (Sigma-Aldrich, Cat #320331) for 30 min. Subsequently, 0.5 mg of W6/32 antibody (BioXCell, BE0079; RRID: AB 1107730) was coupled to sepharose in presence of binding buffer (150 mM sodium chloride, 50 mM sodium bicarbonate, pH 8.3; sodium chloride: Sigma-Aldrich, Cat #S9888, sodium bicarbonate: Sigma-Aldrich, Cat #56014) for at least 2 hours at room temperature. Sepharose was blocked for 1 h with glycine (Sigma-Aldrich, Cat #410225). Columns were equilibrated with PBS for 10 min. […]. Afterwards, cells were lysed in 1 ml 1% CHAPS (Sigma-Aldrich, Cat #C3023) in PBS, supplemented with 1 tablet of protease inhibitors (cOmplete, Cat #11836145001) for 1 hour at 4° C. This lysate was spun down for 1 hour at 20,000 g at 4° C. Supernatant was run over the affinity column through peristaltic pumps at 1 ml/min overnight at 4° C. Affinity columns were washed with PBS for 15 min, run dry, and HLA complexes subsequently eluted three times with 200 μl 1% trifluoracetic acid (TFA, Sigma/Aldrich, Cat #02031). For separation of HLA ligands from their HLA complexes tC18 columns (Sep-Pak tC18 1 cc VacCartridge, 100 mg Sorbent per Cartridge, 37-55 μm Particle Size, Waters, Cat #WAT036820) were prewashed with 80% acetonitrile (ACN, Sigma-Aldrich, Cat #34998) in 0.1% TFA and equilibrated with two washes of 0.1% TFA. Samples were loaded, washed again with 0.1% TFA and eluted in 400 μl 30% ACN in 0.1% TFA. Sample volume was reduced by vacuum centrifugation for mass spectrometry analysis.
Samples were analyzed by a high resolution/high accuracy LC-MS/MS (Lumos Fusion, Thermo Fisher). Peptides were desalted using ZipTips (Sigma Millipore, Cat. #ZTC18S008) according to manufactures instructions and concentrated using vacuum centrifugation prior to being separated using direct loading onto a packedin-emitter C18 column (75 um ID/12 cm, 3 μm particles, Nikkyo Technos Co., Ltd. Japan). The gradient was delivered at 300 nl/min increasing linear from 2% Buffer B (0.1% formic acid in 80% acetonitrile)/98% Buffer A (0.1% formic acid) to 30% Buffer B/70% Buffer A, over 70 minutes. MS and MS/MS were operated at resolutions of 60,000 and 30,000, respectively. Only charge states 1, 2 and 3 were allowed. 1.6 Th was chosen as the isolation window and the collision energy was set at 30%. For MS/MS, the maximum injection time was 100 ms with an AGC of 50,000.
Mass spectrometry data was processed using Byonic software (version 2.7.84, Protein Metrics, PaloAlto, Calif.) through a custom-built computer server equipped with 4 Intel Xeon E5-4620 8-core CPUs operating at 2.2 GHz, and 512 GB physical memory (Exxact Corporation, Freemont, Calif.). Mass accuracy for MS1 was set to 10 ppm and to 20 ppm for MS2, respectively. Digestion specificity was defined as unspecific and only precursors with charges 1, 2, and 3 and up to 2 kDa were allowed. Protein FDR was disabled to allow complete assessment of potential peptide identifications. Oxidization of methionine, N-terminal acetylation, phosphorylation of serine, threonine and tyrosine were set as variable modifications for all samples. All samples were searched against the UniProt Human Reviewed Database (20,349 entries, uniprot.org, downloaded June 2017). […]

For assay [2], the system named is TPC1 cells. Description: Luminex cytokine secretion, TPC1 cells. Particulars: TPC1, 10 nm AST487. The protocol: Supernatant media were harvested after treatment and analyzed by the Luminex device (Luminex Corporation, Austin, Tex.) for relevant cytokine secretion. […] On the left side of each panel is data after 24 hours. On the right side of each panel is data after 48 hours. […] IFNγ detected in the Luminex assay (50-70 ng/ml) is from the added IFNγ at 100 ng/ml at time zero. Therefore, the increase in HLA after inhibitor treatment in these cell lines is not due to indirect activation of the JAK/STAT pathway via autocrine cytokine signaling. The data points shown in this figure are in pairs for each condition. The data point pairs for each time point are, from left to right: DMSO, Rux, Alec, IFNg, and IFNg+Rux.

The subject of assay [3] is pSTAT3, pSTAT1 in TPC1 cells. Put plainly: Western blot of STAT phosphorylation in TPC1 cells. Particulars: TPC1, 10 nM AST487, 24 hrs. The protocol: Cells were seeded in a 60 mm dish or 6 well plates. After the appropriate time point, cells were harvested and lysed and protein was quantified by a Lowry assay (Bio-Rad DC Protein Assay; #5000116). Protein levels were normalized and run on SDS PAGE gels (Bio-Rad). Protein was transferred to a nitrocellulose membrane using semi-dry transfer. Membrane was blocked and incubated with respective antibodies. When needed, secondary antibodies with HRP were incubated for 1 hr. Enhanced chemiluminescent substrate for HRP enzymes was used to image protein levels (Thermo-Fischer; #34095).
Cells were seeded in a 60 mm dish or 6 well plates. After the appropriate time point, cells were harvested, lysed in RIPA buffer (Thermo Instruments) and protein concentration was quantified by a Lowry assay (using the Bio-Rad DC Protein Assay; #5000116 on a Spectramax device from Molecular Devices). Protein loading levels were equalized per lane and separated on SDS gels (Bio-Rad). Protein was transferred to a nitrocellulose membrance using semi-dry transfer (BioRad). Membranes were blocked with Omniblock (American Bio) and incubated with respected antibodies. When needed, secondary antibodies with HRP were incubated for 1 hr. Enhanced chemiluminescent substrate for HRP enzymes was used to image protein levels (Thermo-Fischer; #34095) on a ChemiDoc MP imager with Soft Max Pro software (Biorad).
(In general: A western blot detects proteins with antibodies after separation by electrophoresis.)

As for `CCN1CCN(Cc2ccc(NC(=O)Nc3ccc(Oc4cc(NC)ncn4)cc3)cc2C(F)(F)F)CC1` [AST487], the “runs TEIPP peptide was found in (n = 3)” value in assay [1] (ALFSFVTAL (SEQ ID NO: 11)) came out at 0; in assay [1] (FLGPWPAAS (SEQ ID NO: 12)), 1; in assay [1] (FLSELQYYL (SEQ ID NO: 13)), 0; in assay [1] (FLYPFLSHL (SEQ ID NO: 14)) it was 0; in assay [1] (ILEYLTAEV (SEQ ID NO: 15)), 0; in assay [1] (LLALAAGLAV (SEQ ID NO: 16)), 0. In addition, the “runs TEIPP peptide was found in (n = 3)” value in assay [1] (LLLDVPTAAV (SEQ ID NO: 17)), in assay [1] (LLLSAEPVPA (SEQ ID NO: 18)), in assay [1] (LLWGRQLFA (SEQ ID NO: 19)), in assay [1] (LSEKLERI (SEQ ID NO: 20)), in assay [1] (LTLLGTLWGA (SEQ ID NO: 21)) and in assay [1] (SVLWLGALGL (SEQ ID NO: 22)) was 0 throughout. The “runs TEIPP peptide was found in (n = 3)” value in assay [1] (TLLGASLPA (SEQ ID NO: 23)), in assay [1] (VIIKPLVWV (SEQ ID NO: 24)), in assay [1] (VLAVFIKAV (SEQ ID NO: 25)) and in assay [1] (VLLDHLSLA (SEQ ID NO: 26)) was 0 each time. Moreover, the “new peptides (only peptides found in all three runs counted)” value in assay [1] (TPC1, 10 nM AST487 or 100 nM cabozantinib) came out at 458. The compound also displayed a unique ligands presented in assay [1] (TPC1, 10 nM AST487 or 100 nM cabozantinib, three runs pooled, DMSO 4211) of 5274. Further, in assay [1] (TPC1, three runs pooled), the “increase in unique peptides vs DMSO” value was determined as 25%. In assay [1] (TPC1, DMSO 195), the “unique HLA ligands detected in all 3 runs” value was 585. For the same compound, the “IFNα, IFNγ, IL4, IL6 and TNFα secretion” value in assay [2] is “had no effect on IFNα, IFNγ, IL4, IL6 or TNFα secretion; also recorded: had no effect on IFNα, IFNγ, IL4, IL6 and TNFα secretion”. Besides, the STAT3 phosphorylation entry in assay [3] was “increased significantly; also recorded: increased phosphorylation of STAT3 at 24 hrs”.
